Data on 10 molecules can be found in ChEMBL document CHEMBL1201862, “PubChem BioAssay data set” (2004).

Among the test systems are OVCAR-5; MCF7; OVCAR-8; HCC 2998; NCI-H23; 786-0; HOP-92; SNB-75; SN12C; EKVX; T47D; DU-145; MOLT-4; LOX IMVI; SK-MEL-2; RPMI-8226; ACHN; A498; HT-29.
Common to all, as to experiment: NCI tumour cell line growth inhibition, 48 h

SMILES strings stand for the structures.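 How tested: cells in 96-well plates exposed to compound for 48 hours at five concentrations. At the GI50, growth is halved.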 The source made the active and inactive calls. Cut-off read from the data, not from the text of the source: active = GI50 up to about 1.1 µM and inactive = higher. Bounds are passed on as bounds.

For the molecule `O=C(Nc1ccc(Br)cc1)c1c(-c2ccccc2)c2ccc(O)cc2oc1=O`, the GI50 with OVCAR-5, in the assay with MCF7, in the assay on OVCAR-8, with HCC 2998, with NCI-H23 and in the assay with 786-0 was > 10 µM (inactive) each time. In addition, the GI50 in the assay with HOP-92, in the assay on SNB-75, in the assay with SN12C, in the assay with EKVX, with T47D and in the assay with DU-145 was > 10 µM (inactive) throughout. The GI50 in the assay on MOLT-4, in the assay with LOX IMVI, with SK-MEL-2, in the assay on RPMI-8226, with ACHN and in the assay on A498 was > 10 µM (inactive) each time. Further, the GI50 in the assay with HT-29 was > 10 µM (inactive).

As to `CC(=O)NC1C(OCc2ccccc2)OC(CO)C(O)C1OCC(=O)N1CCCC1C(=O)NC(CCC(=O)NCCCCCNc1c2ccccc2nc2cccc([N+](=O)[O-])c12)C(N)=O` (stereo not given), the GI50 with OVCAR-5 was 0.0231 µM (active); with MCF7, 0.003 µM (active); in the assay with OVCAR-8, 0.00497 µM (active); in the assay on HCC 2998, 0.00706 µM (active); in the assay with NCI-H23, 0.0336 µM (active); in the assay with 786-0, 0.0131 µM (active). In addition, the GI50 in the assay with HOP-92 was 0.0252 µM (active); in the assay on SNB-75, 0.145 µM (active); with SN12C it was 0.011 µM (active); with EKVX it was 0.148 µM (active); in the assay on T47D, 0.578 µM (active); with DU-145, 0.0192 µM (active). The GI50 with MOLT-4 was 0.0561 µM (active); in the assay on LOX IMVI it was 0.166 µM (active); in the assay with SK-MEL-2, 0.019 µM (active); in the assay with RPMI-8226 it was 0.00331 µM (active); in the assay with ACHN it was 0.00865 µM (active); in the assay on A498 it was 0.0568 µM (active). Also, the GI50 in the assay with HT-29 was 0.00125 µM (active).

In the case of `C=C1c2nc3ccccc3n2C=C(c2ccc(C)cc2)N1c1ccc(C)cc1`, the GI50 with OVCAR-5 is > 100 µM (inactive); with MCF7, 26.2 µM (inactive); with OVCAR-8, 18.9 µM (inactive); in the assay on HCC 2998 it was 22.5 µM (inactive); in the assay with NCI-H23, > 59.6 µM (inactive); with 786-0, 78.3 µM (inactive). Also, the GI50 was 68.5 µM (inactive) in the assay with HOP-92; > 100 µM (inactive) in the assay on SNB-75; > 100 µM (inactive) in the assay with SN12C; 46.6 µM (inactive) in the assay on EKVX; > 100 µM (inactive) with T47D; > 83.4 µM (inactive) in the assay with DU-145. Besides, the GI50 in the assay on MOLT-4 is 31.6 µM (inactive); in the assay on LOX IMVI it was 34.8 µM (inactive); in the assay on SK-MEL-2, 47.5 µM (inactive); in the assay on RPMI-8226, 21.4 µM (inactive); with ACHN it was > 78 µM (inactive); in the assay on A498 it was > 100 µM (inactive). Moreover, the GI50 in the assay on HT-29 was 37.9 µM (inactive).

As to `NC1CC(=O)c2ccccc21` (stereo not given), the GI50 with OVCAR-5, in the assay on MCF7, in the assay with OVCAR-8, with HCC 2998, in the assay on NCI-H23 and in the assay on 786-0 was > 100 µM (inactive) each time. In addition, the GI50 with HOP-92, in the assay on SNB-75, in the assay on SN12C, in the assay on EKVX, with T47D and with DU-145 was > 100 µM (inactive) each time. The GI50 in the assay with MOLT-4, with LOX IMVI, in the assay on SK-MEL-2, with RPMI-8226, in the assay on ACHN and with A498 was > 100 µM (inactive) in each case. The GI50 in the assay with HT-29 is > 100 µM (inactive).

`C/C=C/[C@H](O[Si](C)(C)C(C)(C)C)[C@@H](O)/C=C/C(=O)OCC`: the GI50 in the assay with OVCAR-5 was 31.1 µM (inactive); in the assay on MCF7, 21.1 µM (inactive); with OVCAR-8, 18.6 µM (inactive); with HCC 2998, 16.4 µM (inactive); with NCI-H23 it was 38.7 µM (inactive); in the assay with 786-0, 20.8 µM (inactive). The GI50 is 23.8 µM (inactive) in the assay on HOP-92; 37.5 µM (inactive) in the assay with SNB-75; 23.1 µM (inactive) in the assay with SN12C; 20.7 µM (inactive) in the assay with EKVX; 30.4 µM (inactive) with T47D; 43.8 µM (inactive) with DU-145. Also, the GI50 was 18.6 µM (inactive) in the assay with MOLT-4; 17.5 µM (inactive) in the assay on LOX IMVI; 26.5 µM (inactive) in the assay on SK-MEL-2; 2.04 µM (inactive) with RPMI-8226; 16.6 µM (inactive) in the assay on ACHN; 30.3 µM (inactive) in the assay with A498. For the same molecule, in the assay with HT-29, the GI50 is 21.5 µM (inactive).

With `CSc1nc2ccccc2c(=O)n1-c1cccc(C)c1`, the GI50 was > 100 µM (inactive) in the assay on OVCAR-5; 32.5 µM (inactive) in the assay on MCF7; > 100 µM (inactive) in the assay with OVCAR-8; 15.6 µM (inactive) in the assay with HCC 2998; > 100 µM (inactive) in the assay with NCI-H23; > 100 µM (inactive) with 786-0. In addition, the GI50 in the assay with HOP-92 was 26.5 µM (inactive); with SNB-75 it was 32 µM (inactive); in the assay on SN12C, > 100 µM (inactive); in the assay with EKVX, 73.6 µM (inactive); in the assay on T47D, 29.2 µM (inactive); in the assay with DU-145, > 100 µM (inactive). For the same molecule, the GI50 with MOLT-4 was 28.8 µM (inactive); in the assay on LOX IMVI it was 53.1 µM (inactive); in the assay with SK-MEL-2 it was 70.5 µM (inactive); with RPMI-8226, 39.4 µM (inactive); in the assay with ACHN, 97.9 µM (inactive); with A498, 19.9 µM (inactive). The GI50 with HT-29 was 38.6 µM (inactive).

With `NCC(=O)C(O)C(O)C(O)CO` (stereo not given), the GI50 in the assay on OVCAR-5, with MCF7, in the assay on OVCAR-8, in the assay with HCC 2998, in the assay with NCI-H23 and with 786-0 was > 100 µM (inactive) each time. The GI50 with HOP-92 was > 100 µM (inactive); in the assay with SNB-75 it was 65.9 µM (inactive); in the assay with SN12C, > 100 µM (inactive); in the assay with EKVX it was > 100 µM (inactive); in the assay on T47D, > 100 µM (inactive); in the assay with DU-145, > 100 µM (inactive). In addition, the GI50 with MOLT-4, in the assay on LOX IMVI, in the assay on SK-MEL-2, with RPMI-8226, with ACHN and in the assay on A498 was > 100 µM (inactive) throughout. For the same molecule, the GI50 in the assay with HT-29 is > 100 µM (inactive).

As for `COc1cc2c(cc1OC)C(=O)/C(=C/c1ccccc1)CC2`, the GI50 in the assay on OVCAR-5 was 27.4 µM (inactive); in the assay on MCF7, 27.3 µM (inactive); in the assay with OVCAR-8 it was 45.5 µM (inactive); with HCC 2998, 22.6 µM (inactive); in the assay on NCI-H23, > 100 µM (inactive); with 786-0 it was 34.9 µM (inactive). The GI50 is 24.8 µM (inactive) with HOP-92; 17 µM (inactive) with SNB-75; 43.7 µM (inactive) in the assay on SN12C; 56.1 µM (inactive) in the assay on EKVX; 26.1 µM (inactive) with T47D; 83.2 µM (inactive) in the assay on DU-145. Besides, the GI50 in the assay with MOLT-4 was 18.1 µM (inactive); in the assay on LOX IMVI, 32.7 µM (inactive); in the assay on SK-MEL-2, 14.1 µM (inactive); in the assay on RPMI-8226, 23.4 µM (inactive); in the assay with ACHN it was 53.5 µM (inactive); in the assay with A498, 26.1 µM (inactive). Further, the GI50 in the assay with HT-29 was 17.9 µM (inactive).

Consider `CCCCN(CCCC)CCC(O)c1cc(-c2ccc(C(F)(F)F)cc2)nc(-c2ccc(C(F)(F)F)cc2)c1` (stereo not given), for which the GI50 in the assay on OVCAR-5, in the assay with MCF7, with OVCAR-8, in the assay on HCC 2998, in the assay on NCI-H23 and in the assay with 786-0 was > 100 µM (inactive) each time. In addition, the GI50 in the assay on HOP-92, in the assay on SNB-75, with SN12C, with EKVX, in the assay with T47D and with DU-145 was > 100 µM (inactive) each time. Also, the GI50 in the assay on MOLT-4, in the assay with LOX IMVI, with SK-MEL-2, with RPMI-8226, in the assay with ACHN and in the assay on A498 was > 100 µM (inactive) throughout. Further, in the assay on HT-29, the GI50 was > 100 µM (inactive).

Take `CCCCc1cc2c(cc1O)CCC1C2CC[C@@]2(C)C1CC[C@@H]2O` (stereo not given in full): the GI50 in the assay with OVCAR-5 is 17.7 µM (inactive); with MCF7, 11.8 µM (inactive); in the assay with OVCAR-8, 15.3 µM (inactive); with HCC 2998, 19.9 µM (inactive); in the assay with NCI-H23, 20.2 µM (inactive); in the assay on 786-0, 22.8 µM (inactive). Besides, the GI50 in the assay on HOP-92 was 20 µM (inactive); in the assay with SNB-75, 13 µM (inactive); with SN12C, 18.7 µM (inactive); in the assay on EKVX, 14.8 µM (inactive); with T47D it was 8.97 µM (inactive); in the assay with DU-145, 18.3 µM (inactive). In addition, the GI50 in the assay with MOLT-4 is 11.7 µM (inactive); with LOX IMVI it was 16.6 µM (inactive); in the assay on SK-MEL-2, 18.4 µM (inactive); in the assay with RPMI-8226 it was 5.14 µM (inactive); in the assay on ACHN it was 16.2 µM (inactive); with A498, 21.8 µM (inactive). The GI50 with HT-29 is 23.2 µM (inactive).
